Measured values reported in PMC7587356, “High-Throughput Screening for Inhibitors of the SARS-CoV-2 Protease Using a FRET-Biosensor” (Molecules, 2020).
Where a name gives a salt, the structure may show the parent alone. Read-outs that look alike come from different tables or passages of the source.

Biological target: SARS-CoV-2 3CLpro (Severe acute respiratory syndrome coronavirus 2, UniProt P0DTD1)
Assay: biochemical
Format: biochemical
Set-up: Replicate_1 / Replicate_2 / mean / mean (LOPAC_screen_w_protease): unit not given here
Details: for inhibition at 5 µM: 4 h
[1] = sheet LOPAC_screen_w_protease, primary screen of LOPAC1280 at 5 µM with protease, mean of the two replicates, read-out: mean
[2] = sheet LOPAC_screen_w_protease, primary screen of LOPAC1280 at 5 µM with protease, replicate 1, read-out: Replicate_1
[3] = sheet LOPAC_screen_w_protease, primary screen of LOPAC1280 at 5 µM with protease, replicate 2, read-out: Replicate_2
[4] = sheet LOPAC_screen_w_protease, primary screen with protease, 5 µM, mean of two replicates
[5] = sheet LOPAC_screen_w_protease, primary screen with protease, 5 µM, replicate 1
[6] = sheet LOPAC_screen_w_protease, primary screen with protease, 5 µM, replicate 2
[7] = LOPAC1280 primary screen with protease, 5 µM compound, replicate 1
[8] = LOPAC1280 primary screen with protease, 5 µM compound, replicate 2
[9] = LOPAC1280 primary screen with protease, 5 µM compound, mean of the two replicates

CN1C[C@H](CNC(=O)OCc2ccccc2)C[C@@H]2c3cccc4c3c(cn4C)C[C@H]21 [Metergoline]
inhibition at 5 µM [1]: 4.08% | inhibition at 5 µM [2]: 2.56% | inhibition at 5 µM [3]: 5.6%

Cl.Cl.NCCNS(=O)(=O)c1cccc2cnccc12 [H-9 dihydrochloride]
mean [4]: 0.3892 | Replicate_1 [5]: 0.9278 | Replicate_2 [6]: -0.1494

Cl.N[C@@H](CCC(=O)O)C(=O)O [L-Glutamic acid hydrochloride]
mean (LOPAC_screen_w_protease) (LOPAC1280 primary screen with protease, 5 µM compound, mean of two replicates): 1.56 | Replicate_1 (LOPAC_screen_w_protease) [7]: 1.529 | Replicate_2 (LOPAC_screen_w_protease) [8]: 1.59

O=c1onc2n1-c1cc(Br)ccc1OC2 [NS 2028]
Replicate_1: 5.339 | Replicate_2: 3.612 | mean: 4.476

CCOC(=O)C(C)(C)Oc1ccc(Cl)cc1 [Clofibrate]
inhibition at 5 µM (sheet LOPAC_screen_w_protease, primary screen with protease, compound at 5 µM, mean of two replicates, read-out: mean): 2.71% | inhibition at 5 µM (sheet LOPAC_screen_w_protease, primary screen with protease, compound at 5 µM, replicate 1, read-out: Replicate_1): 1.49% | inhibition at 5 µM (sheet LOPAC_screen_w_protease, primary screen with protease, compound at 5 µM, replicate 2, read-out: Replicate_2): 3.93%

COc1cc(C(O)CN)ccc1O.Cl (racemic) [(±)-Normetanephrine hydrochloride]
mean (sheet LOPAC_screen_w_protease, LOPAC1280 primary screen with protease, 5 µM compound, mean of the two replicates): 4.101 | Replicate_1 (sheet LOPAC_screen_w_protease, LOPAC1280 primary screen with protease, 5 µM compound, replicate 1): 4.337 | Replicate_2 (sheet LOPAC_screen_w_protease, LOPAC1280 primary screen with protease, 5 µM compound, replicate 2): 3.864

C[C@@]12N[C@@H](Cc3ccccc31)c1ccccc12.O=C(O)/C=C\C(=O)O [(-)-MK-801 hydrogen maleate]
mean (LOPAC screen with protease) (sheet LOPAC_screen_w_protease, primary screen at 5 µM, mean of two replicates): 6.636 | Replicate_1 (LOPAC screen with protease) (sheet LOPAC_screen_w_protease, primary screen at 5 µM, replicate 1): 5.967 | Replicate_2 (LOPAC screen with protease) (sheet LOPAC_screen_w_protease, primary screen at 5 µM, replicate 2): 7.306

Cc1ccc(Cl)c(Nc2ccccc2C(=O)O)c1Cl [Meclofenamic acid sodium]
inhibition at 5 µM (read-out: Replicate_1): 1.45% | inhibition at 5 µM (read-out: Replicate_2): 5.52% | inhibition at 5 µM (read-out: mean): 3.48%

O=C(O)CC[N+](=O)[O-] [3-Nitropropionic acid]
inhibition at 5 µM [1]: 3.54% | inhibition at 5 µM [2]: 2.8% | inhibition at 5 µM [3]: 4.28%

CNC(=O)[C@H]1O[C@@H](n2cnc3c(N)ncnc32)[C@H](O)[C@@H]1O [5'-N-Methyl carboxamidoadenosine]
mean (sheet LOPAC_screen_w_protease, primary screen of LOPAC1280 at 5 µM with protease, mean of the two replicates): 3.814 | Replicate_1 (sheet LOPAC_screen_w_protease, primary screen of LOPAC1280 at 5 µM with protease, replicate 1): 3.632 | Replicate_2 (sheet LOPAC_screen_w_protease, primary screen of LOPAC1280 at 5 µM with protease, replicate 2): 3.996

Cl.NCCCCC(=O)O [5-Aminovaleric acid hydrochloride]
mean [4]: 0.3592 | Replicate_1 [5]: 0.7789 | Replicate_2 [6]: -0.06046

Br.COc1ccc2c(c1)[C@]13CCCC[C@@H]1[C@H](C2)N(C)CC3.O
mean (LOPAC_screen_w_protease) [9]: 1.973 | Replicate_1 (LOPAC_screen_w_protease) [7]: 1.427

N#Cc1cc2nc([O-])c([O-])nc2cc1[N+](=O)[O-].[Na+].[Na+] [CNQX disodium]
mean (sheet LOPAC_screen_w_protease, LOPAC1280 primary screen at 5 µM, with protease, mean of the two replicates): 0.7558 | Replicate_1 (sheet LOPAC_screen_w_protease, LOPAC1280 primary screen at 5 µM, with protease, replicate 1): 2.8399 | Replicate_2 (sheet LOPAC_screen_w_protease, LOPAC1280 primary screen at 5 µM, with protease, replicate 2): -1.328

CCCCOc1cc(CC2CNC(=O)N2)ccc1OC (centres unmarked) [Ro 20-1724]
mean (LOPAC_screen_w_protease) [9]: 1.901 | Replicate_1 (LOPAC_screen_w_protease) [7]: 0.9131 | Replicate_2 (LOPAC_screen_w_protease) [8]: 2.888

CC(C)NC(C)Cc1ccc(I)cc1 (centres unmarked) [Iofetamine hydrochloride]
inhibition at 5 µM (read-out: Replicate_1): 3.54% | inhibition at 5 µM (read-out: Replicate_2): 3.79% | inhibition at 5 µM (read-out: mean): 3.67%

CCCCCCC(C)(C)c1ccc([C@@H]2C[C@H](O)CC[C@H]2CCCO)c(O)c1 [CP55940]
inhibition at 5 µM (sheet LOPAC_screen_w_protease, primary screen with protease, mean of two replicates, read-out: mean): 2.22% | inhibition at 5 µM (sheet LOPAC_screen_w_protease, primary screen with protease, replicate 1, read-out: Replicate_1): 1.74% | inhibition at 5 µM (sheet LOPAC_screen_w_protease, primary screen with protease, replicate 2, read-out: Replicate_2): 2.71%

CC(C)(C)C1(O)CCN2CC3c4ccccc4CCc4cccc(c43)C2C1.Cl (racemic) [(±)-Butaclamol hydrochloride]
Replicate_1: 4.433 | Replicate_2: 5.727 | mean: 5.08

C[C@]12CCC(=O)C(O)=C1CC[C@@H]1[C@@H]2CC[C@]2(C)C(=O)CC[C@@H]12 [4-Androsten-4-ol-3,17-dione]
mean [4]: 0.2033 | Replicate_1 [5]: 1.5144 | Replicate_2 [6]: -1.108
